Results published in patent US8975265B2, “Substituted imidazo[1,2-a]pyrimidines and —pyridines” (Bayer Intellectual Property GmbH, priority 2010, dated 2015).

What was measured:
UACC-62 (melanoma) = experiment: Tumor cell proliferation assay, UACC-62; assay type: cell-based; conditions: Homo sapiens, 72h drug exposure, read-out: median IC50
Procedure: (§1) Biological Assay 4.0: Tumor Cell Proliferation Assays
(§2) Compounds were tested in a cell-based assay that measures the capacity of the compounds to inhibit tumour cell proliferation following a 72h drug exposure. Cell viability is determined using CellTiter-Glow® (CTG, Promega, cat# G7571/2/3). The CellTiter-Glo® Luminescent Cell Viability Assay is a homogeneous method to determine the number of viable cells in culture. Detection is based on using the luciferase reaction to measure the amount of ATP from viable cells. The amount of ATP in cells correlates with cell viability. Within minutes after a loss of membrane integrity, cells lose the ability to synthesize ATP, and endogenous ATPases destroy any remaining ATP; thus the levels of ATP fall precipitously.
(§3) Cells were plated at 3000-5000 cells/well (depending on the cell lines) in 90 μL growth medium on MTPs (Corning; #3603, black plate, clear flat bottom). For each cell line assayed, cells were plated onto a separate plate for determination of […] at t=0 hour and t=72 hour time points. Following overnight incubation at 37° C., chemiluminescence values for the t=0 samples were determined after adding 10 μl medium and 100 μl CTG solution according to manufacture protocol. […] Chemiluminescence values for the t=72 hour samples were determined. […]

A375 (melanoma) = experiment: Tumor cell proliferation assay, A375; assay type: cell-based; conditions: Homo sapiens, A-375, 72h drug exposure, read-out: median IC50
Procedure: as §1, §2, §3

H1993 (NSCLC) = experiment: Tumor cell proliferation assay, H1993; assay type: cell-based; conditions: Homo sapiens, NCI-H1993, 72h drug exposure, read-out: median IC50
Procedure: as §1, §2, §3

MeWo (melanoma) = experiment: Tumor cell proliferation assay, MeWo; assay type: cell-based; conditions: Homo sapiens, 72h drug exposure, read-out: median IC50
Procedure: as §1, §2, §3

HT-144 (melanoma) = experiment: Tumor cell proliferation assay, HT-144; assay type: cell-based; conditions: Homo sapiens, 72h drug exposure, read-out: median IC50
Procedure: as §1, §2, §3

Malme-3M (melanoma) = experiment: Tumor cell proliferation assay, Malme-3M; assay type: cell-based; conditions: Homo sapiens, 72h drug exposure, read-out: median IC50
Procedure: as §1, §2, §3

A2058 (melanoma) = experiment: Tumor cell proliferation assay, A2058; assay type: cell-based; conditions: Homo sapiens, 72h drug exposure, read-out: median IC50
Procedure: as §1, §2, §3

UACC-257 (melanoma) = experiment: Tumor cell proliferation assay, UACC-257; assay type: cell-based; conditions: Homo sapiens, 72h drug exposure, read-out: median IC50
Procedure: as §1, §2, §3

HMCB (melanoma) = experiment: Tumor cell proliferation assay, HMCB; assay type: cell-based; conditions: Homo sapiens, 72h drug exposure, read-out: median IC50
Procedure: as §1, §2, §3

U87 (brain) = experiment: Tumor cell proliferation assay, U87; assay type: cell-based; conditions: 72h drug exposure, read-out: median IC50
Procedure: as §1, §2, §3

SK-Mel-28 (melanoma) = experiment: Tumor cell proliferation assay, SK-Mel-28; assay type: cell-based; conditions: Homo sapiens, 72h drug exposure, read-out: median IC50
Procedure: as §1, §2, §3

[1] = system: KPL-4 breast cancer cell line; experiment: Tumor cell proliferation assay (CellTiter-Glo, 72 h), KPL-4; assay type: cell-based; conditions: KPL4, 72h drug exposure
Summary of the method: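 KPL-4 cells were treated with compound for 72 h at 37°C. Viability was measured as ATP by CellTiter-Glo luminescence, with a separate t=0 plate read after overnight attachment. A reference compound was run as standard.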

[2] = system: p-AKT1/2/3-S473 in KPL4 breast tumour cell line; experiment: Cellular p-AKT1/2/3-S473 assay; assay type: cell-based; conditions: KPL4 breast tumour cell line, 2 hours treatment; read-out: pAKT-S743 median IC50
Summary of the method: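 KPL4 cells (PIK3CA H1047R, HER2 0/E, hormone independent) were seeded at 60–80% confluency, cultured overnight, then exposed to compound for 2 h at 37 °C. pAKT-S473 and total AKT measured together by MSD Akt Duplex on 20 µg extract; pAKT expressed as % of total AKT, at least duplicate with independent repeats.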

[3] = target: His-tagged human recombinant kinase full-length Akt1 (Homo sapiens (Human), UniProt P31749); experiment: Akt1 kinase assay (TR-FRET); assay type: biochemical; conditions: 10 μM ATP; read-out: Akt1, median IC50
His-tagged human recombinant kinase full-length Akt1, sequence (P31749 whole entry): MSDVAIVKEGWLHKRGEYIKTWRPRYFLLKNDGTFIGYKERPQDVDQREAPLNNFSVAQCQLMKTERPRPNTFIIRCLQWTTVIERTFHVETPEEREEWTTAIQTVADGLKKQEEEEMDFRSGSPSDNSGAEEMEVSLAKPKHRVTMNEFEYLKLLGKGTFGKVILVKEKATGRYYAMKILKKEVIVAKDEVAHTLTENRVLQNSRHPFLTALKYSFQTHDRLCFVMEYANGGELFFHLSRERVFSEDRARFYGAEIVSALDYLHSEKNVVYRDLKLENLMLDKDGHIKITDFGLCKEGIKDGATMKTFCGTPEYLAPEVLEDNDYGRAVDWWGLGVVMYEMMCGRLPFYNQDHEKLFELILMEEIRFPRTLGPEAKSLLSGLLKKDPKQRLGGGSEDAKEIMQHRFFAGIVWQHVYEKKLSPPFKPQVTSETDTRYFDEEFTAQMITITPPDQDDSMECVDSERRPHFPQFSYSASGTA
Summary of the method: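 Full-length His-tagged Akt1 (about 0.05 ng/μl final) preincubated 15 min at 22 °C with compound in 50 mM TRIS/HCl pH 7.5, 5 mM MgCl2, 1 mM DTT, 0.02% Triton X-100; biotinylated peptide substrate. Phosphopeptide detected by TR-FRET (Eu-chelate antibody to streptavidin-XL665) after 1 h at 22 °C.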

Row | SMILES | IC50 (UACC-62 (melanoma)) [µM] | IC50 (A375 (melanoma)) [µM] | IC50 (H1993 (NSCLC)) [µM] | IC50 (MeWo (melanoma)) [µM] | IC50 (HT-144 (melanoma)) [µM] | IC50 (Malme-3M (melanoma)) [µM] | IC50 (A2058 (melanoma)) [µM] | IC50 (UACC-257 (melanoma)) [µM] | IC50 (HMCB (melanoma)) [µM] | IC50 (U87 (brain)) [µM] | IC50 (SK-Mel-28 (melanoma)) [µM] | IC50 [1] [µM] | IC50 [2] [µM] | IC50 [3] [µM]
1 | NC1(c2ccc(-c3nc4nc(-c5ccccc5)ccn4c3-c3ccccc3)cc2)CCC1 [Example 1-3] | 2.2 | 2.2 | 0.6 | 2 | 2.3 | 1.9 | 2.2 | 1.1 | 2.6 | 4.9 | 2 | 1.7 | – | –
2 | COc1ccn2c(-c3ccccc3)c(-c3ccc(C4(N)CCC4)cc3)nc2n1 [Example 2-0, 1-[4-(7-methoxy-3-phenyl-imidazo[1,2-a]pyrimidin-2-yl)-phenyl]-cyclobutylamine] | 8.9 | 8.6 | 0.5 | 5.2 | 2.1 | 2.4 | 2.1 | 2 | 8.5 | 10 | 3.7 | 0.8 | 0.03 | 0.142
